Measured values published in publication PMC6222410, “Design, Synthesis and Docking Studies of Novel Macrocyclic Pentapeptides as Anticancer Multi-Targeted Kinase Inhibitors” (Molecules : A Journal of Synthetic Chemistry and Natural …, 2018).
Read-outs that look alike come from different tables or passages of the source.

Experiments:
HepG-2 cell line = experiment: In vitro cytotoxicity on HepG-2 cell line; format: cell-based; settings: HepG-2 human hepatocellular carcinoma cells, concentration inhibiting cell viability by 50%, mean of three values, read-out: IC50 (Mean ± SEM) HepG-2
Source text: (§1) In vitro bioassay on human cancer cell lines was adopted against two cancer cell lines (MCF-7 and HepG-2). HepG2, human hepatocellular carcinoma and MCF-7, human breast cancer cell lines were obtained from Sigma-Aldrich Chemie GmbH, Taufkirchen, Germany.

MCF-7 cell line = experiment: In vitro cytotoxicity on MCF-7 cell line; format: cell-based; settings: MCF-7 human breast cancer cells; concentration inhibiting cell viability by 50%; mean of three values; read-out: IC50 (Mean ± SEM) MCF-7
Source text: as §1

EGFR = EGFR (Homo sapiens, UniProt P00533); experiment: In vitro kinase inhibition, ELISA assay; format: biochemical; settings: mean of three values, read-out: IC50 (Mean±SEM) EGFR
Procedure: The in vitro enzyme inhibition determination for compound 5c was carried out in confirmatory diagnostic unit, Vacsera, Egypt. […]

CDK-2 = CDK-2 (Homo sapiens, UniProt P24941); experiment: In vitro kinase inhibition, ELISA assay; format: biochemical; settings: mean of three values, read-out: IC50 (Mean±SEM) CDK-2
PDGFRβ = PDGFRβ (Homo sapiens, UniProt P09619); experiment: In vitro kinase inhibition, ELISA assay; format: biochemical; settings: mean of three values, read-out: IC50 (Mean±SEM) PDGFRβ
Sequence of PDGFRβ (P09619 33-1106): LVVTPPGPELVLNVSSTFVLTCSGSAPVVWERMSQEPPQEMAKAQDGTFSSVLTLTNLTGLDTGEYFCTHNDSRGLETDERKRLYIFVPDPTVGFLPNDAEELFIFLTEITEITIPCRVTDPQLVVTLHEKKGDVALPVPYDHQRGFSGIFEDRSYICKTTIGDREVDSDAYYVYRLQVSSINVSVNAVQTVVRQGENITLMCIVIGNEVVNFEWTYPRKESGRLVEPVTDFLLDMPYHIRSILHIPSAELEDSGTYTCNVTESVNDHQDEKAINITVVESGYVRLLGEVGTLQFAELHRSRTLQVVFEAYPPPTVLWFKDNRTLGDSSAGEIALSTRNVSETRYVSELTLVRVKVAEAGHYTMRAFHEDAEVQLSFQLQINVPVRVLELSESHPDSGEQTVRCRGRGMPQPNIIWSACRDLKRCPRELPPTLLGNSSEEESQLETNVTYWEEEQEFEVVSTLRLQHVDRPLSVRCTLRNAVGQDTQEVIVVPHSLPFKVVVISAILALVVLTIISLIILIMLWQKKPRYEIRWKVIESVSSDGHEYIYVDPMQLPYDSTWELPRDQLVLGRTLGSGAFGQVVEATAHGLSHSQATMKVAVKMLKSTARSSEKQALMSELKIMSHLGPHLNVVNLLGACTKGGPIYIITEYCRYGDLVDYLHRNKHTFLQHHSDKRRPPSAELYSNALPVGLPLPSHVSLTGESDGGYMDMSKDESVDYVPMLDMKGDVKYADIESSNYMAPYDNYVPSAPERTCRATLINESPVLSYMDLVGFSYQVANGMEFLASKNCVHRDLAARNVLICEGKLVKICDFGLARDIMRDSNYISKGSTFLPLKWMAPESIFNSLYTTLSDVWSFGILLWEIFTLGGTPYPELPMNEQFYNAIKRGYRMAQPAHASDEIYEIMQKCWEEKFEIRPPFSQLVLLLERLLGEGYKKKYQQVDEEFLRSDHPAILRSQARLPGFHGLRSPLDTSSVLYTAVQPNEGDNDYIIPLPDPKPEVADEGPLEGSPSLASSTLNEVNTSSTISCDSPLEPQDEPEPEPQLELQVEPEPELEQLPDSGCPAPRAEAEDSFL

Sequence of EGFR (P00533 25-1210): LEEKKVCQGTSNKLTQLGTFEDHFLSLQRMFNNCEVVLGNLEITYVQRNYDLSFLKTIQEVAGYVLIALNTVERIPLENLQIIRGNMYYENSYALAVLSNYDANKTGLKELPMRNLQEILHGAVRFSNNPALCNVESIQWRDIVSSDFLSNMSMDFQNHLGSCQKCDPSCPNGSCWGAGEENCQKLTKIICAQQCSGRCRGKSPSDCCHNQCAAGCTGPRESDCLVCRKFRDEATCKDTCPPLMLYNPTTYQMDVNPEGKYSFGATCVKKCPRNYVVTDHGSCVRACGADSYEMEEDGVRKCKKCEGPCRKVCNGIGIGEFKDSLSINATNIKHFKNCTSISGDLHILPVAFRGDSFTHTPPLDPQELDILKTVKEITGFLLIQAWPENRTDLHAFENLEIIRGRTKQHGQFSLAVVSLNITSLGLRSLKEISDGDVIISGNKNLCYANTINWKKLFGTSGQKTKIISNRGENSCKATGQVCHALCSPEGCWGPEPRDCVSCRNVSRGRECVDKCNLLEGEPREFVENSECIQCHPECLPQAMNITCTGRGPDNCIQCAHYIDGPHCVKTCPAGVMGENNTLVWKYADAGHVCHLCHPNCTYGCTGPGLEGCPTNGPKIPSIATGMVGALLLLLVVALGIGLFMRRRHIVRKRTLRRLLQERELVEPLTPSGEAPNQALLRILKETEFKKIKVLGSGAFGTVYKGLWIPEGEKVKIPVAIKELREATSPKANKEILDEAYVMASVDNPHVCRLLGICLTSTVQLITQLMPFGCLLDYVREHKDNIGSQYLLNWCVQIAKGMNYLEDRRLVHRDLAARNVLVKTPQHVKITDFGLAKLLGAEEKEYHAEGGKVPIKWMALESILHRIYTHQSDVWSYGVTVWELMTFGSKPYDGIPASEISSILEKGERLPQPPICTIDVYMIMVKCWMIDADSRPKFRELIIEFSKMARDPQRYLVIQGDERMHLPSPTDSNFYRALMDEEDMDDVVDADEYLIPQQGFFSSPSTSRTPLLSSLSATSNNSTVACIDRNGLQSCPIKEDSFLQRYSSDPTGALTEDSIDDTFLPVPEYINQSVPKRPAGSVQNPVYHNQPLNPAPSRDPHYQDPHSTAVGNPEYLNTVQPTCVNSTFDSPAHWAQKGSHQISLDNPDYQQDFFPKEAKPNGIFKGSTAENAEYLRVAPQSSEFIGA

CC[C@H](C)[C@@H]1NC(=O)c2cccc(n2)C(=O)N[C@@H]([C@@H](C)CC)C(=O)N[C@@H](Cc2ccccc2)C(=O)N[C@H](C(=O)OC)CCCCNC(=O)[C@H](Cc2ccccc2)NC1=O [Compound 4b, Cyclo-(N^α-Dipicolinoyl)-bis-[L-ILe-L-Phe]-L-Lys-OMe]
IC50 (HepG-2 cell line): 10.2 ± 2.2 µM | melting point: 104 to 106 °C | IC50 (MCF-7 cell line): 10.5 ± 1.33 µM

CC[C@H](C)[C@@H]1NC(=O)c2cccc(n2)C(=O)N[C@@H]([C@@H](C)CC)C(=O)N[C@@H]([C@@H](C)CC)C(=O)N[C@H](C(=O)O)CCCCNC(=O)[C@H]([C@@H](C)CC)NC1=O [Compound 5a, Cyclo-(N^α-dipicolinoyl)-bis [L-ILe-L-ILe]-L-Lys-OH]
IC50 (HepG-2 cell line): 11.2 ± 1.95 µM | melting point: 108 to 110 °C | IC50 (MCF-7 cell line): 12.7 ± 2.4 µM

CC[C@H](C)[C@@H]1NC(=O)[C@H](Cc2ccccc2)NC(=O)c2cccc(n2)C(=O)N[C@@H](Cc2ccccc2)C(=O)N[C@@H]([C@@H](C)CC)C(=O)N[C@H](C(=O)OC)CCCCNC1=O [Compound 4c, Cyclo-(N^α-Dipicolinoyl)-bis-[L-Phe-L-ILe]-L-Lys-OMe]
IC50 (HepG-2 cell line): 18.8 ± 1.47 µM | melting point: 140 to 142 °C | IC50 (MCF-7 cell line): 29.2 ± 1.39 µM

CC[C@H](C)[C@H](NC(=O)[C@@H](NC(=O)c1cccc(C(=O)N[C@H](C(=O)N[C@H](C(=O)O)[C@@H](C)CC)[C@@H](C)CC)n1)[C@@H](C)CC)C(=O)O [Compound 3a, N^α-Dipicolinoyl-bis[L-ILe-L-ILe]acid]
IC50 (HepG-2 cell line): 26 ± 2.35 µM | melting point: 178 to 180 °C | IC50 (MCF-7 cell line): > 100 µM

CC[C@H](C)[C@H](NC(=O)[C@H](Cc1ccccc1)NC(=O)c1cccc(C(=O)N[C@@H](Cc2ccccc2)C(=O)N[C@H](C(=O)OC)[C@@H](C)CC)n1)C(=O)OC [Compound 2c, N^α-Dipicolinoyl-bis[L-Phe-L-ILe-methyl ester]]
IC50 (HepG-2 cell line): 35.5 ± 1.83 µM | melting point: 150 to 152 °C | IC50 (MCF-7 cell line): > 100 µM

CC[C@H](C)[C@H](NC(=O)[C@H](Cc1ccccc1)NC(=O)c1cccc(C(=O)N[C@@H](Cc2ccccc2)C(=O)N[C@H](C(=O)O)[C@@H](C)CC)n1)C(=O)O [Compound 3c, N^α-Dipicolinoyl-bis[L-Phe-L-ILe]acid]
IC50 (HepG-2 cell line): 26.6 ± 1.85 µM | melting point: 202 to 204 °C | IC50 (MCF-7 cell line): 29.6 ± 2.06 µM

CC[C@H](C)[C@@H]1NC(=O)[C@H](Cc2ccccc2)NC(=O)c2cccc(n2)C(=O)N[C@@H](Cc2ccccc2)C(=O)N[C@@H]([C@@H](C)CC)C(=O)N[C@H](C(=O)O)CCCCNC1=O [Compound 5c, Cyclo-(N^α-dipicolinoyl)-bis [L-Phe-L-ILe]-L-Lys-OH]
IC50 (EGFR): 0.14 µM | IC50 (HepG-2 cell line): 7.53 ± 1.33 µM | IC50 (CDK-2): 0.06 µM | melting point: 178 to 180 °C | IC50 (MCF-7 cell line): 9.41 ± 1.25 µM | IC50 (PDGFRβ): 0.08 µM

CC[C@H](C)[C@@H]1NC(=O)c2cccc(n2)C(=O)N[C@@H]([C@@H](C)CC)C(=O)N[C@@H](Cc2ccccc2)C(=O)N[C@H](C(=O)NN)CCCCNC(=O)[C@H](Cc2ccccc2)NC1=O [Compound 6b, Cyclo-(N^α-dipicolinoyl)-bis[L-ILe-L-Phe]-L-Lys-NHNH2]
IC50 (HepG-2 cell line): 11.5 ± 1.7 µM | melting point: 161 to 163 °C | IC50 (MCF-7 cell line): 10.9 ± 1.1 µM

CC[C@H](C)[C@@H]1NC(=O)c2cccc(n2)C(=O)N[C@@H]([C@@H](C)CC)C(=O)N[C@@H]([C@@H](C)CC)C(=O)N[C@H](C(=O)OC)CCCCNC(=O)[C@H]([C@@H](C)CC)NC1=O [Compound 4a, Cyclo-(N^α-dipicolinoyl)-bis-[L-ILe-L-ILe]-L-Lys-OMe]
IC50 (HepG-2 cell line): 11.6 ± 2.7 µM | melting point: 77 to 79 °C | IC50 (MCF-7 cell line): > 100 µM

O=c1[nH]cc(F)c(=O)[nH]1 [5-Fluorouracil®, 5-Fluorouracil, reference compound]
IC50 (HepG-2 cell line; HepG2): 43.8 ± 1.84 µM

CC[C@H](C)[C@@H]1NC(=O)c2cccc(n2)C(=O)N[C@@H]([C@@H](C)CC)C(=O)N[C@@H](Cc2ccccc2)C(=O)N[C@H](C(=O)O)CCCCNC(=O)[C@H](Cc2ccccc2)NC1=O [Compound 5b, Cyclo-(N^α-dipicolinoyl)-bis [L-ILe-L-Phe]-L-Lys-OH]
IC50 (HepG-2 cell line): 10.1 ± 2.05 µM | melting point: 128 to 130 °C | IC50 (MCF-7 cell line): 11.3 ± 1.15 µM

CC[C@H](C)[C@H](NC(=O)c1cccc(C(=O)N[C@H](C(=O)N[C@@H](Cc2ccccc2)C(=O)OC)[C@@H](C)CC)n1)C(=O)N[C@@H](Cc1ccccc1)C(=O)OC [Compound 2b, N^α-Dipicolinoyl-bis[L-ILe-L-Phe-methyl ester]]
IC50 (HepG-2 cell line): 15.8 ± 1.66 µM | melting point: 122 to 124 °C | IC50 (MCF-7 cell line): 32.6 ± 1.5 µM

CC[C@H](C)[C@H](NC(=O)c1cccc(C(=O)N[C@H](C(=O)N[C@H](C(=O)OC)[C@@H](C)CC)[C@@H](C)CC)n1)C(=O)N[C@H](C(=O)OC)[C@@H](C)CC [Compound 2a, N^α-Dipicolinoyl-bis[L-ILe-L-ILe-methyl ester]]
IC50 (HepG-2 cell line): 20.4 ± 1.36 µM | melting point: 106 to 108 °C | IC50 (MCF-7 cell line): 31.6 ± 1.3 µM

CC[C@H](C)[C@H](NC(=O)c1cccc(C(=O)N[C@H](C(=O)N[C@@H](Cc2ccccc2)C(=O)O)[C@@H](C)CC)n1)C(=O)N[C@@H](Cc1ccccc1)C(=O)O [Compound 3b, N^α-Dipicolinoyl-bis[L-ILe-L-Phe]acid]
IC50 (HepG-2 cell line): 13.5 ± 1.45 µM | melting point: 184 to 186 °C | IC50 (MCF-7 cell line): 25.3 ± 1.18 µM

CC[C@H](C)[C@@H]1NC(=O)[C@H](Cc2ccccc2)NC(=O)c2cccc(n2)C(=O)N[C@@H](Cc2ccccc2)C(=O)N[C@@H]([C@@H](C)CC)C(=O)N[C@H](C(=O)NN)CCCCNC1=O [Compound 6c, Cyclo-(N^α-Dipicolinoyl)-bis[L-Phe-L-ILe]-L-Lys-NHNH2]
IC50 (HepG-2 cell line): 12.1 ± 1.68 µM | melting point: 208 to 210 °C | IC50 (MCF-7 cell line): > 100 µM

CC[C@H](C)[C@@H]1NC(=O)c2cccc(n2)C(=O)N[C@@H]([C@@H](C)CC)C(=O)N[C@@H]([C@@H](C)CC)C(=O)N[C@H](C(=O)NN)CCCCNC(=O)[C@H]([C@@H](C)CC)NC1=O [Compound 6a, Cyclo-(N^α-dipicolinoyl)-bis[L-ILe-L-ILe]-L-Lys-NHNH2]
IC50 (HepG-2 cell line): 12.4 ± 1.3 µM | melting point: 180 to 182 °C | IC50 (MCF-7 cell line): 11.8 ± 1.62 µM
